Broadly, the inhibition is the share of the control response that was lost under treatment. A word on the IC50: it is the midpoint of a concentration-inhibition curve. Lower therefore signals greater potency.

Our source for the MIC, inhibition and IC50 values is ChEMBL document CHEMBL4819085, “Dipyridyl-substituted thiosemicarbazone as a potent broad-spectrum inhibitor of metallo-β-lactamases” (Bioorg Med Chem, 2021).

For experiment [1], the system named is Enterococcus faecium. In words: Antibacterial activity against vancomycin-resistant Enterococcus faecium assessed as reduction in bacterial growth incubated for 24 hrs by broth microdilution method. Type of experiment: functional.
Experiment [2] deals with Staphylococcus aureus. Put plainly: Antibacterial activity against methicillin-resistant Staphylococcus aureus assessed as reduction in bacterial growth incubated for 24 hrs by broth microdilution method. Type of experiment: functional. (Broth dilution looks for growth in wells or tubes with falling amounts of substance.)
Experiment [3] relates to Escherichia coli. In words: Antibacterial activity against Escherichia coli 01 assessed as reduction in bacterial growth incubated for 24 hrs by broth microdilution method. It counts as functional.
Experiment [4] has as its system Escherichia coli. In words: Antibacterial activity against Escherichia coli 04 assessed as reduction in bacterial growth incubated for 24 hrs by broth microdilution method. Type of experiment: functional.
Experiment [5] concerns Escherichia coli. In words: Antibacterial activity against Escherichia coli 06 assessed as reduction in bacterial growth incubated for 24 hrs by broth microdilution method. Type of experiment: functional.
Experiment [6] has as its system Escherichia coli. Put plainly: Antibacterial activity against Escherichia coli 08 assessed as reduction in bacterial growth incubated for 24 hrs by broth microdilution method. It counts as functional.
The subject of experiment [7] is Escherichia coli. In words: Antibacterial activity against Escherichia coli 24 assessed as reduction in bacterial growth incubated for 24 hrs by broth microdilution method. Type of experiment: functional.
Experiment [8] has as its system Klebsiella pneumoniae. In words: Antibacterial activity against Klebsiella pneumoniae assessed as reduction in bacterial growth incubated for 24 hrs by broth microdilution method. Type of experiment: functional.
Experiment [9] relates to Pseudomonas aeruginosa. Put plainly: Antibacterial activity against Carbapenem-resistant Pseudomonas aeruginosa assessed as reduction in bacterial growth incubated for 24 hrs by broth microdilution method. Type of experiment: functional.
The test system of experiment [10] is Bacteria. Put plainly: Inhibition of bacterial NDM-1 expressed in Escherichia coli BL21 (DE3) at 20 uM using meropenem as substrate incubated for 1 hr by spectrometry analysis relative to control.
For experiment [11], the system named is Escherichia coli. In words: Inhibition of Escherichia coli NDM-1 assessed as reduction in bacterial growth incubated for 24 hrs by broth microdilution method.
Experiment [12] has as its target Metallo-beta-lactamase (Escherichia coli) (UniProt Q5U7L7). Put plainly: Inhibition of Escherichia coli VIM-2 assessed as reduction in bacterial growth incubated for 24 hrs by broth microdilution method.
The test system of experiment [13] is Escherichia coli. Put plainly: Inhibition of Escherichia coli IMP-1 assessed as reduction in bacterial growth incubated for 24 hrs by broth microdilution method.
Experiment [14] has as its system Escherichia coli. In words: Inhibition of Escherichia coli ImiS assessed as reduction in bacterial growth incubated for 24 hrs by broth microdilution method.
For experiment [15], the system named is Escherichia coli. Put plainly: Inhibition of Escherichia coli L1 assessed as reduction in bacterial growth incubated for 24 hrs by broth microdilution method.
Experiment [16] deals with Klebsiella pneumoniae. In words: In vivo antibacterial activity against Klebsiella pneumoniae producing NDM-1 infected in mouse assessed as reduction in bacterial load in liver at 10 mg/kg, ip. Type of experiment: functional, organism-based.
For experiment [17], the system named is Klebsiella pneumoniae. In words: In vivo antibacterial activity against Klebsiella pneumoniae producing NDM-1 infected in mouse assessed as reduction in bacterial load in spleen at 10 mg/kg, ip. Type of experiment: functional, organism-based.
The nature of experiment [18]: Inhibition of bacterial NDM-1 expressed in Escherichia coli BL21 (DE3) using meropenem as substrate incubated for 1 hr by spectrometry analysis. On the set-up: species or system Bacteria.
Experiment [19] is described as follows: Inhibition of bacterial VIM-2 expressed in Escherichia coli BL21 (DE3) using meropenem as substrate incubated for 1 hr by spectrometry analysis. Also noted: species or system Bacteria.
The nature of experiment [20]: Inhibition of bacterial IMP-1 using meropenem as substrate incubated for 1 hr by spectrometry analysis. On the set-up: species or system Bacteria.
A short description of experiment [21]: Inhibition of bacterial ImiS expressed in Escherichia coli BL21 (DE3) using meropenem as substrate incubated for 1 hr by spectrometry analysis. On the set-up: species or system Bacteria.
Experiment [22] in a line: Inhibition of bacterial L1 using meropenem as substrate incubated for 1 hr by spectrometry analysis. Also noted: species or system Bacteria.

≈ marks a conversion by molar mass, not a printed value. Calls of active or inactive are those of the source. The calls are words filed in the database; no cut-off is given here.

In the case of `CO/N=C(\C(=O)N[C@@H]1C(=O)N2C(C(=O)O)=C(CSc3nc(=O)c(O)nn3C)CS[C@H]12)c1csc(N)n1` [CEFTRIAXONE], the MIC in experiment [1] stood at 512 µg/mL (≈ 0.923 mM); in [2], 4100 µg/mL (≈ 7.39 mM); in [3] it was 16000 µg/mL (≈ 28.9 mM); in experiment [4] it was 16000 µg/mL (≈ 28.9 mM); in [5] it was 16000 µg/mL (≈ 28.9 mM); in experiment [6], 16000 µg/mL (≈ 28.9 mM). Moreover, the MIC in experiment [7] worked out at 16000 µg/mL (≈ 28.9 mM); in experiment [8], 8190 µg/mL (≈ 14.8 mM); in experiment [9] it was 64 µg/mL (≈ 0.115 mM).
Turning to `C[C@@H](O)[C@H]1C(=O)N2C(C(=O)O)=C(S[C@@H]3CN[C@H](C(=O)N(C)C)C3)[C@H](C)[C@H]12` [MEROPENEM], in [10], the inhibition is over 90%. Besides, the MIC in [1] amounted to 256 µg/mL (≈ 0.668 mM); in experiment [2], 64 µg/mL (≈ 0.167 mM); in experiment [3], 128 µg/mL (≈ 0.334 mM); in experiment [4] it was 64 µg/mL (≈ 0.167 mM); in experiment [5], 128 µg/mL (≈ 0.334 mM); in experiment [6], 128 µg/mL (≈ 0.334 mM). The MIC in experiment [7] stood at 128 µg/mL (≈ 0.334 mM); in [8], 256 µg/mL (≈ 0.668 mM); in [9], 8 µg/mL (≈ 0.0209 mM); in experiment [11], 128 µg/mL (≈ 0.334 mM); in experiment [12], 64 µg/mL (≈ 0.167 mM); in experiment [13] it was 32 µg/mL (≈ 0.0834 mM). For the same compound, the results for the MIC in experiment [14] and in experiment [15] were 64 µg/mL (≈ 0.167 mM) and 128 µg/mL (≈ 0.334 mM), respectively. Further, the inhibition entry in [16] and in experiment [17] was “Active” each time.
Turning to `CC1(C)S[C@@H]2[C@H](NC(=O)[C@H](N)c3ccccc3)C(=O)N2[C@H]1C(=O)O` [AMPICILLIN], the MIC was over 16000 µg/mL in [1]; over 16000 µg/mL in experiment [2]; over 16000 µg/mL in [3]; over 16000 µg/mL in experiment [4]; 8190 µg/mL (≈ 23.4 mM) in experiment [5]; over 16000 µg/mL in [6]. Also, the results for the MIC in experiment [7], in experiment [8] and in [9] were 16000 µg/mL (≈ 45.8 mM), 8190 µg/mL (≈ 23.4 mM) and over 16000 µg/mL, respectively.
For the compound `O=C(O)C(=O)CBr` [BROMOPYRUVATE], the IC50 is 2.57 µM in [18]; 18.7 µM in [19]; 28.9 µM in experiment [20]; over 40 µM in [21]; over 40 µM in experiment [22].
In the case of `CO/N=C(\C(=O)N[C@@H]1C(=O)N2C(C(=O)O)=C(COC(C)=O)CS[C@H]12)c1csc(N)n1` [CEFOTAXIME], the MIC in experiment [1] is 4100 µg/mL (≈ 8.99 mM); in experiment [2], 1020 µg/mL (≈ 2.25 mM); in experiment [3], 16000 µg/mL (≈ 35.1 mM); in [4] it was over 16000 µg/mL; in experiment [5], 8190 µg/mL (≈ 18 mM); in experiment [6], 8190 µg/mL (≈ 18 mM). Also, the values for the MIC in experiment [7], in experiment [8] and in [9] were 16000 µg/mL (≈ 35.1 mM), 16000 µg/mL (≈ 35.1 mM) and over 16000 µg/mL, respectively.
Take `Cc1nnc(SCC2=C(C(=O)O)N3C(=O)[C@@H](NC(=O)Cn4cnnn4)[C@H]3SC2)s1` [CEFAZOLIN]: the MIC stood at 8130 µg/mL (≈ 17.9 mM) in experiment [1]; 4100 µg/mL (≈ 9.01 mM) in [2]; 16000 µg/mL (≈ 35.2 mM) in [3]; 4100 µg/mL (≈ 9.01 mM) in experiment [4]; 4100 µg/mL (≈ 9.01 mM) in experiment [5]; 4100 µg/mL (≈ 9.01 mM) in experiment [6]. The values for the MIC in experiment [7], in experiment [8] and in experiment [9] were 4100 µg/mL (≈ 9.01 mM), 4100 µg/mL (≈ 9.01 mM) and over 16000 µg/mL, respectively.
